In US20150218534A1, “MODIFIED DNA POLYMERASE” (TOYOBO CO., LTD., priority 2012, published 2015):

Key:
[1] = test system: human genomic DNA (about 1.3 kb) with dUTP added; assay: Evaluation of uracil (dUTP) sensitivity by PCR with dUTP added to the reaction; format: biochemical; settings: for Evaluation of dUTP resisitance on a 11-point scale: closer to 0 = stronger sensitivity to dUTP, closer to 10 = lower sensitivity, summary of Examples 1 to 3; for dUTP resistance: dUTP added to 0.5, 5, 50, 100, 200 μM, about 1.3 kb, 30 cycles, 1 U enzyme
In short: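 Each enzyme (1 U) amplified about 1.3 kb from 10 ng human genomic DNA in KOD-Plus-Ver. 2 buffer with 1.5 mM MgSO4 and 0.2 mM dNTPs. dUTP was added at final 0.5, 5, 50, 100 and 200 μM, over 30 cycles of 98/65/68° C. Sensitivity is the dUTP level still yielding product on ethidium bromide-stained agarose gel.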

[2] = test system: 1.3 kbp, 2.8 kbp, and 3.6 kbp of human β-globin; assay: Amplification of long-chain DNA in PCR using dUTP; format: biochemical; design: key to Results of PCR in the presence of dUTP 1.3 kbp / Results of PCR in the presence of dUTP 2.8 kbp / Results of PCR in the presence of dUTP 3.6 kbp: A: Amplified; B: Amplified (faint band); C: Not amplified; settings: dTTP replaced by dUTP, 35 cycles
In short: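 Enzymes (1 U, premixed with KOD antibody) amplified 1.3, 2.8 and 3.6 kbp β-globin from 10 ng human genomic DNA with 2 mM dNTPs having dUTP in place of dTTP, 1.5 mM MgSO4, 35 cycles (98° C. 10 s, 65° C. 30 s, 68° C. ~1 min/kbp). Taq control: 2.5 U, 94° C. denaturation. Yield judged by ethidium-stained agarose gel.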

Substance	Evaluation of dUTP resisitance on a 11-point scale [1]	dUTP resistance [1] [µM]	Results of PCR in the presence of dUTP 1.3 kbp [2]	Results of PCR in the presence of dUTP 2.8 kbp [2]	Results of PCR in the presence of dUTP 3.6 kbp [2]
KOD D141A/E143A/Y7A/P36R: KOD D141A/E143A (exo(−)) mutant with Y7A and P36R	10	>200	A	A	A
KOD N210D/P36R: KOD N210D (exo(−)) mutant with P36R	8	>200	A	A	A
KOD N210D/Y7A/V93K: KOD N210D (exo(−)) mutant with Y7A and V93K	10	>200	A	A	A
KOD H147E/P36R/V93K: KOD H147E (exo(+)) mutant with P36R and V93K	0	0	C	C	C
KOD Y7A/P36R: modified KOD DNA polymerase with Y7A and P36R	7	>200	A	A	B
KOD N210D/Y7A: KOD N210D (exo(−)) mutant with Y7A	2	5	C	C	C
KOD N210D/V93Q: KOD N210D (exo(−)) mutant with V93Q	6	>200	C	C	C
KOD N210D/P115Δ: KOD N210D (exo(−)) mutant lacking P115	0	0	C	C	C
KOD H147E/Y7A/P115Δ: KOD H147E (exo(+)) mutant with Y7A and lacking P115	0	0	C	C	C
KOD N210D/Y7A/P36R: KOD N210D (exo(−)) mutant with Y7A and P36R	10	>200	A	A	A
KOD I142R/P36R: KOD I142R (exo(−)) mutant with P36R	8	>200	A	A	A
KOD H147E/V93R: KOD H147E (exo(+)) mutant with V93R	6	>200	B	B	B
KOD H147E/Y7A/P36H: KOD H147E (exo(+)) mutant with Y7A and P36H	8	>200	A	A	B
KOD N210D/Y7A/P115Δ: KOD N210D (exo(−)) mutant with Y7A and lacking P115	0	0	C	C	C
KOD Y7A/V93K: modified KOD DNA polymerase with Y7A and V93K	8	>200	A	A	B
KOD I142R/P36H: KOD I142R (exo(−)) mutant with P36H	8	>200	A	A	A

Substance	Evaluation of dUTP resisitance on a 11-point scale [1]	dUTP resistance [1] [µM]	Results of PCR in the presence of dUTP 1.3 kbp [2]	Results of PCR in the presence of dUTP 2.8 kbp [2]	Results of PCR in the presence of dUTP 3.6 kbp [2]
KOD H147E/P36H: KOD H147E (exo(+)) mutant with P36H	6	>200	B	B	C
KOD I142R/Y7A: KOD I142R (exo(−)) mutant with Y7A	2	5	C	C	C
KOD H147E/Y7A/P36R: KOD H147E (exo(+)) mutant with Y7A and P36R	8	>200	A	A	B
KOD H147E/Y7A: KOD H147E (exo(+)) mutant with Y7A	2	0.5	C	C	C
KOD D141A/E143A/V93K: KOD D141A/E143A (exo(−)) mutant with V93K	8	>200	A	B	B
KOD H147E/P115Δ: KOD H147E (exo(+)) mutant lacking P115	0	0	C	C	C
KOD I142R/Y7A/P36H: KOD I142R (exo(−)) mutant with Y7A and P36H	8	>200	A	A	C
KOD I142R/Y7A/P36R: KOD I142R (exo(−)) mutant with Y7A and P36R	8	>200	A	A	B
KOD H147E/V93Q: KOD H147E (exo(+)) mutant with V93Q	4	100	C	C	C
KOD P36R/V93K: modified KOD DNA polymerase with P36R and V93K	0	0	C	C	C
KOD H147E/P36R: KOD H147E (exo(+)) mutant with P36R	6	>200	B	B	B
KOD N210D/P36H: KOD N210D (exo(−)) mutant with P36H	8	>200	A	A	A
KOD I142R/Y7A/V93K: KOD I142R (exo(−)) mutant with Y7A and V93K	10	>200	A	A	A
KOD I142R/V93K: KOD I142R (exo(−)) mutant with V93K	8	>200	A	B	B
KOD Y7A/P115Δ: modified KOD DNA polymerase with Y7A and lacking P115	0	0	C	C	C
